{"source": "patent US4496591A", "about": "“Insecticidal bis-carbamate sulfides” (priority 1981, dated 1985)", "type_in_all_cases": "in vivo", "key": {"[1]": {"tested_on": "housefly adults (Musca domestica)", "assay": "Comparative residual effect in soil", "experimental": "Selected species of the new compounds were evaluated for their residual pesticidal activity in soil. […] The residual activity test were conducted using five to seven-day old housefly adults (Musca domestica).\nThe soil mixture used was one part agricultural soil and three parts sand. The agricultural soil was stored in plastic bags in a freezer, immediately after removal from the field. This was done to reduce microbial multiplication. Two weeks prior to use, the soil was thawed and held at room temperature to allow microbial population to equilibrate. The sand and soil were sifted to remove clumps and debris and were then blended by rolling on a roller mill in a closed metal container. The moisture level was adjusted to 15% by weight.\nThe concentration in the soil of the compound to be tested was four times the amount (in parts per million) necessary to achieve a mortality rate of 50% on contact with the soil (LD50). This is in accordance with the procedure developed by C. R. Harris of the Research Institute, Canadian Department of Agriculture, London, Ontario. Such procedure is disclosed in \"Biological Activity of Chloropyrifos, Chlorpyrifor-Methyl, Phorate, and Counter® in Soil\", The Canadian Entomologist, Vol. 109, pp. 1115-1120 (August 1977); and in \"Laboratory Studies on the Persistance of Biological Activity of Some Insecticides in Soils\", Journal of Economic Entomology, Vol. 62, No. 6, pp. 1437-1441 (December 1969).\nAn appropriate amount of compound was dissolved in an acetone--Triton solution and was diluted with water. Five mililiters of the formulated chemical was applied to four ounces of soil mixture and rolled in a 16-ounce glass jar to blend the compound evenly with the soil. Ten mililiters of granular cane sugar was then mixed thoroughly with the treated soil in an eight-ounce plastic container.\nTwenty-five housefly adults, anesthetized with CO2, were then transferred to the soil and were covered with a perforated plastic lid. The test containers were held for 24 hours in a constant environment at a temperature of 80±5° F. and a relative humidity of […]. Mortality was based on the ability of the fly to move in a normal manner without spinning.\nThe above process was repeated on treated soil which had been incubated at 25° C. and 90% relative humidity for 1, 4, 6 and 8 weeks after initial exposure. This was necessary because the soil is incubated without sugar, sugar being added at the time of reinfestation. For this reason, appropriate volumes of soil had to be treated at the start of the soil test to last for the expected residual period."}, "[2]": {"tested_on": "bean aphid (Aphis fabae Scop.)", "assay": "Bean aphid foliage spray test", "set-up": "key: A: excellent control; B: partial control; C: no control at 500 ppm", "conditions": "500 parts per million, 24 hour", "experimental": "(§1) Suspensions of the test compounds were prepared by dissolving one gram of compound in 50 milliliters of acetone in which had been dissolved 0.1 gram (10 percent of the weight of compound) of an alkylphenoxy polyethoxyethanol surfactant, as an emulsifying or dispersing agent. The resulting solution was mixed into 150 milliliters of water to give roughly 200 milliliters of a suspension containing the compound in finely divided form. The thus-prepared stock suspension contained 0.5 percent by weight of compound. The concentrations in parts per million by weight employed in the tests described hereinbelow were obtained by appropriate dilutions of the stock suspension with water. The test procedures were as follows:\nAdults and nymphal stages of the bean aphid (Aphis fabae Scop.) reared on potted dwarf nasturtium plants at 68°-70° F. and 50±5 percent relative humidity, constituted the test insects. For testing purposes, the number of aphids per pot were standardized to 100-150 by trimming plants containing excess aphids.\nThe test compounds were formulated by diluting the stock suspension with water to give a suspension containing 500 parts of test compound per million parts of final formulation.\nThe potted plants (one pot per compound tested) infested with 100-150 aphids, were placed on a revolving turntable and sprayed with 100-110 milliliters of test compound formulation by use of a DeVilbiss spray gun set at 40 psig. air pressure. This application, which lasted 25 seconds, was sufficient to wet the plants to run-off. As a control, 100-110 milliliters of a water-acetone-emulsifier solution containing no test compound was also sprayed on infested plants. After spraying, the pots were placed on their sides on a sheet of white standard mimeograph paper which had been previously ruled to facilitate counting. Temperature and humidity in the test room during the 24 hour holding period were 68°-70° F. and 50±5 percent, respectively. Aphids which fell onto the paper and were unable to remain standing after being uprighted were considered dead. Aphids remaining on the plants were observed closely for movement and those which were unable to move the length of the body upon stimulation by prodding were considered dead.\n(§2) In these tests the pesticidal activity of the compounds at the indicated dosage rate against aphid, Southern Armyworm, Bean Beetle and housefly was rated as follows: […]"}, "[3]": {"tested_on": "southern armyworm (Spodoptera eridania, (Cram.)) larvae", "assay": "Southern armyworm leaf spray bait test", "set-up": "key: A: excellent control; B: partial control; C: no control at 500 ppm", "conditions": "500 parts per million, three days", "experimental": "as §1\nLarvae of the southern armyworm (Spodoptera eridania, (Cram.)), reared on Tendergreen bean plants at a temperature of 80±5° F. and a reative humidity of 50±5 percent, constituted the test insects.\nThe test compounds were formulated by diluting the stock suspension with water to give a suspension containing 500 parts of test compound per million parts of final formulation. Potted Tendergreen bean plants of standard height and age were placed on a revolving turntable and sprayed with 100-110 milliliters of test compound formulation by use of a DeVilbiss spray gun set at 40 psig air pressure. This application, which lasted 25 seconds, was sufficient to wet the plants to run-off. As a control, 100-110 milliliters of a water-acetone-emulsifier solution containing no test compound were also sprayed on infested plants. When dry, the paired leaves were separated and each one was placed in a 9 centimeter Petri dish lines with moistened filter paper. Five randomly selected larvae were introduced into each dish and the dishes were closed. The closed dishes were labeled and held at 80°-85° F. for three days. Although the larvae could easily consume the whole leaf within twenty-four hours, no more food was added. Larvae which were unable to move the length of the body, even upon stimulation by prodding, were considered dead.\nas §2"}}}
{"smiles": "CSC(C)=NOC(=O)N(C)SN(C)C(=O)Oc1cccc(C=O)c1", "note": "[Compound 3]", "values": [{"measurement": "Residual effect in soil (mortality), 0 weeks", "setting": "[1]; 0 weeks, soil concentration four times LD50, housefly, 24 hours", "value": 100}, {"measurement": "Residual effect in soil (mortality), 1 week", "setting": "[1]; 1 week, soil concentration four times LD50, 25° C., 90% relative humidity, 10080 min", "value": 100}, {"measurement": "Residual effect in soil (mortality), 4 weeks", "setting": "[1]; 4 weeks, soil concentration four times LD50, 25° C., 90% relative humidity, 40320 min", "value": 73}, {"measurement": "Residual effect in soil (mortality), 8 weeks", "setting": "[1]; 8 weeks, soil concentration four times LD50, 25° C., 90% relative humidity, 80640 min", "value": 40}, {"measurement": "Residual Activity (weeks)", "setting": "[1]; soil concentration four times LD50, housefly", "value": "4-8 weeks"}, {"measurement": "Aphids, pesticidal activity rating", "setting": "[2]", "value": "A"}, {"measurement": "Southern Armyworm, pesticidal activity rating", "setting": "[3]", "value": "A"}]}
